What is called melting point is the temperature of the solid-liquid transition. `N[C@H](C(=O)N1CC(F)(F)C(F)(F)C1)C1CCCCC1` [Example 3, (S)-2-Amino-2-cyclohexyl-1-(3,3,4,4-tetrafluoro-pyrrolidin-1-yl)-ethanone] had a melting point of 278 °C.

The compound `CC(C)[C@H](N)C(=O)N1CC(F)(F)C(F)(F)C1` [Example 5, (S)-2-Amino-3-methyl-1-(3,3,4,4-tetrafluoro-pyrrolidin-1-yl)-butan-1-one] displayed a melting point of 234 to 238 °C.

Source of the values: patent publication US20040002609A1, “Synthesis of 3,3,4,4-tetrafluoropyrrolidine and novel dipeptidyl peptidase-IV inhibitor compounds” (Pfizer Inc., priority 2002, published 2004).
